Results from patent US12612412B2, “Antiviral heterocyclic compounds” (Enanta Pharmaceuticals, Inc., priority 2021, dated 2026).
Like-named read-outs stand apart in the source and are kept apart here.

Experiments:
[1] = tested on: genotype A, "Long" strain RSV; assay: RSV-A assay (CPE protection in Hep-2 cells, ATPlite readout); format: cell-based, Human respiratory syncytial virus (HRSV); conditions: genotype A “Long” strain RSV, MOI 0.1, CPE protection, read-out: Human RSV-A (“Long”)
In short: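 ATPlite luminescence (cellular ATP) served as the measure of cell health after 5 days of infection. Hep-2 cells at 8,000 per well received duplicate 2-fold compound dilutions plus virus at MOI 0.1, and EC50 was calculated from CPE protection.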

[2] = tested on: HMPV clinical isolate TN/1501/A1; assay: HMPV antiviral assay Method-B (clinical isolate TN/1501/A1 in LLC-MK2 cells, ATP-Lite readout); format: cell-based, Human metapneumovirus (HMPV); conditions: human metapneumovirus, LLC-MK2, 144 h, hMPV WT1501 (clinical isolate TN/1501/A1), 6 days
In short: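 LLC-MK2 cells infected in suspension with TN/1501/A1 at MOI 0.014 in serum-free medium with 2 μg/mL TPCK-trypsin (final), incubated 6 days at 37° C. Compounds tested in duplicate, 10-point 3-fold dilutions from 10 μM. Cell health read by ATP-Lite luminescence, normalised to virus-only and cells-only controls; EC50 by four-parameter logistic fit.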

[3] = human respiratory syncytial virus

Structure (SMILES)	EC50 [1, 3] [nM]	EC50 [2] [nM]	EC50 [1] [nM]
C[C@]1(C(N)=O)COc2c1cc([C@@](O)(CNC(=O)c1cc(F)c3nc(C4CC4)cn3c1)C(F)(F)F)nc2-c1ccc2c(c1)OC(F)(F)O2 [Example 548]	< 200	< 500	–
C[C@]1(C(N)=O)COc2c1cc([C@@](O)(CNC(=O)c1cc(F)c3nc(C4CC4)cn3c1)C1CC1)nc2-c1ccc2c(c1)OC(F)(F)O2 [Example 549]	< 200	< 500	–
COc1cc(C(=O)NC[C@](O)(c2cc3c(c(-c4ccc(F)c(Cl)c4F)n2)OC[C@]3(C)C(N)=O)C(F)(F)F)cc2cn(C3(F)CC3)nc12 [Example 550]	< 200	< 500	–
COc1cc(C(=O)NC[C@](O)(c2cc3c(c(-c4ccc(F)c(Cl)c4F)n2)OC[C@]3(C)C(N)=O)C(F)(F)F)cc2cn(C(F)F)nc12 [Example 551]	< 200	< 500	–
COc1cc(C(=O)NC[C@](O)(c2cc3c(c(-c4ccc(F)c(Cl)c4F)n2)OC[C@]3(C)C(N)=O)C(F)(F)F)cc2cc(Cl)c(C)nc12 [Example 552]	< 200	< 500	–
Cc1cnc2c(OC(F)F)cc(C(=O)NC[C@](O)(c3cc4c(c(-c5ccc(F)c(Cl)c5F)n3)OC[C@]4(C)C(N)=O)C(F)(F)F)cc2c1 [Example 553]	< 200	< 500	–
COc1cc(C(=O)NC[C@](O)(c2cc3c(c(-c4ccc(F)c(Cl)c4F)n2)OC[C@]3(C)C(N)=O)C2CC2)cc2cn(C3CC3)nc12 [Example 554]	< 200	< 500	–
COc1cc(C(=O)NC[C@](O)(c2cc3c(c(-c4ccc(F)c(Cl)c4F)n2)OC[C@]3(C)C(N)=O)C2CC2)cc2cn(C3(F)CC3)nc12 [Example 555]	< 200	< 500	–
COc1cc(C(=O)NC[C@](O)(c2cc3c(c(-c4ccc(F)c(Cl)c4F)n2)OC[C@]3(C)C(N)=O)C2CC2)cc2cn(C(F)F)nc12 [Example 556]	< 200	< 500	–
COc1cc(C(=O)NC[C@](O)(c2cc3c(c(-c4ccc(F)c(Cl)c4F)n2)OC[C@]3(C)C(N)=O)C2CC2)cc2cc(Cl)c(C)nc12 [Example 557]	< 200	< 500	–
Cc1cnc2c(OC(F)F)cc(C(=O)NC[C@](O)(c3cc4c(c(-c5ccc(F)c(Cl)c5F)n3)OC[C@]4(C)C(N)=O)C3CC3)cc2c1 [Example 558]	< 200	< 500	–
C[C@]1(C(N)=O)COc2c1cc([C@@](O)(CNC(=O)c1cc(Cl)c3nn(C4CC4)cc3c1)C1CC1)nc2-c1ccc(F)c(Cl)c1F [Example 559]	< 200	< 500	–
C[C@]1(C(N)=O)COc2c1cc([C@@](O)(CNC(=O)c1cc(OC3CC3)c3nc(C4CC4)cn3c1)C1CC1)nc2-c1ccc(F)c(Cl)c1F [Example 560]	< 200	< 500	–
COc1cc(C(=O)NC[C@](O)(c2cc3c(c(-c4ccc(F)c(Cl)c4F)n2)OC[C@]3(C)C(N)=O)C2CC2)cc2cc(Br)cnc12 [Example 561]	< 200	< 500	–
COc1cc(C(=O)NC[C@](O)(c2cc3c(c(-c4ccc(F)c(F)c4Cl)n2)OC[C@]3(C)C(N)=O)C2CC2)cc2cn(C3(F)CC3)nc12 [Example 562]	< 200	< 500	–
COc1cc(C(=O)NC[C@](O)(c2cc3c(c(-c4ccc(F)c(F)c4Cl)n2)OC[C@]3(C)C(N)=O)C2CC2)cc2cn(C(F)F)nc12 [Example 563]	< 200	< 500	–
C[C@]1(C(N)=O)COc2c1cc([C@@](O)(CNC(=O)c1cc(Cl)c3nn(C4CC4)cc3c1)C1CC1)nc2-c1ccc(F)c(F)c1Cl [Example 564]	< 200	< 500	–
COc1cc(C(=O)NC[C@](O)(c2cc3c(c(-c4ccc(F)c(F)c4Cl)n2)OC[C@]3(C)C(N)=O)C2CC2)cc2cc(Cl)c(C)nc12 [Example 565]	< 200	< 500	–
Cc1cnc2c(OC(F)F)cc(C(=O)NC[C@](O)(c3cc4c(c(-c5ccc(F)c(F)c5Cl)n3)OC[C@]4(C)C(N)=O)C3CC3)cc2c1 [Example 566]	< 200	< 500	–
C[C@]1(C(N)=O)COc2c1cc([C@@](O)(CNC(=O)c1cc(OC3CC3)c3nn(C(F)F)cc3c1)C(F)(F)F)nc2-c1ccc(F)c(Cl)c1F [Example 567]	< 200	< 500	–
C[C@]1(C(N)=O)COc2c1cc([C@@](O)(CNC(=O)c1cc(OC3CC3)c3nn(C(F)F)cc3c1)C1CC1)nc2-c1ccc(F)c(Cl)c1F [Example 568]	< 200	< 500	–
C[C@]1(C(N)=O)COc2c1cc([C@@](O)(CNC(=O)c1cc(OC3CC3)c3nn(C(F)F)cc3c1)C(F)(F)F)nc2-c1ccc2c(c1)OC(F)(F)O2 [Example 569]	< 200	< 500	–
C[C@]1(C(N)=O)COc2c1cc([C@@](O)(CNC(=O)c1cc(Cl)c3nn(C(F)F)cc3c1)C1CC1)nc2-c1ccc(F)c(Cl)c1F [Example 570]	< 200	< 500	–

Structure (SMILES)	EC50 [1, 3] [nM]	EC50 [2] [nM]	EC50 [1] [nM]
C[C@]1(C(N)=O)COc2c1cc([C@@](O)(CNC(=O)c1cc(F)c3nn(C(F)F)cc3c1)C1CC1)nc2-c1ccc(F)c(Cl)c1F [Example 571]	< 200	< 500	–
COc1cc(C(=O)NC[C@](O)(c2cc3c(c(-c4ccc(F)c(Cl)c4F)n2)OC[C@]3(C)C(N)=O)C2CC2)cc2cc(C(F)(F)F)cnc12 [Example 572]	< 200	< 500	–
CC[C@]1(C(N)=O)COc2c1cc([C@@](O)(CNC(=O)c1cc(OC)c3nn(C4CC4)cc3c1)C(F)(F)F)nc2-c1ccc(F)cc1 [Example 573]	–	< 500	< 200
COc1cc(C(=O)NC[C@](O)(c2cc3c(c(-c4ccc(F)c(Cl)c4)n2)OC[C@]3(C)C(N)=O)C2CC2)cc2cn(C(F)F)nc12 [Example 574]	< 200	< 500	–
COc1cc(C(=O)NC[C@](O)(c2cc3c(c(-c4ccc(F)c(Cl)c4)n2)OC[C@]3(C)C(N)=O)C2CC2)cc2cn(C3CC3)nc12 [Example 575]	< 200	< 500	–
COc1cc(C(=O)NC[C@](O)(c2cc3c(c(-c4ccc(C#N)c(Cl)c4)n2)OC[C@]3(C)C(N)=O)C(F)(F)F)cc2cn(C(F)F)nc12 [Example 576]	< 200	> 500	–
COc1cc(C(=O)NC[C@](O)(c2cc3c(c(-c4ccc(C#N)c(Cl)c4)n2)OC[C@]3(C)C(N)=O)C(F)(F)F)cc2cc(Cl)c(C)nc12 [Example 578]	< 200	> 500	–
COc1cc(C(=O)NC[C@](O)(c2cc3c(c(-c4ccc(C(F)(F)F)c(Cl)c4)n2)OC[C@]3(C)C(N)=O)C(F)(F)F)cc2cn(C3CC3)nc12 [Example 579]	< 200	> 500	–
COc1cc(C(=O)NC[C@](O)(c2cc3c(c(-c4ccc(C(F)(F)F)c(Cl)c4)n2)OC[C@]3(C)C(N)=O)C(F)(F)F)cc2cn(C(F)F)nc12 [Example 580]	< 200	> 500	–
COc1cc(C(=O)NC[C@](O)(c2cc3c(c(-c4ccc(C(F)(F)F)c(Cl)c4)n2)OC[C@]3(C)C(N)=O)C(F)(F)F)cc2cc(Cl)c(C)nc12 [Example 581]	< 200	> 500	–
COc1cc(C(=O)NC[C@](O)(c2cc3c(c(-c4cnc(C#N)c(Cl)c4)n2)OC[C@]3(C)C(N)=O)C(F)(F)F)cc2cn(C(F)F)nc12 [Example 582]	< 200	> 500	–
COc1cc(C(=O)NC[C@](O)(c2cc3c(c(-c4cnc(C#N)c(Cl)c4)n2)OC[C@]3(C)C(N)=O)C(F)(F)F)cc2cn(C3CC3)nc12 [Example 583]	< 200	> 500	–
COc1cc(C(=O)NC[C@](O)(c2cc3c(c(-c4ccc(Cl)cc4)n2)OC[C@]3(C)C(N)=O)C(F)(F)F)cc2cn(C3CC3)nc12 [Example 585]	< 200	> 500	–
COc1cc(C(=O)NC[C@](O)(c2cc3c(c(-c4ccc(Cl)cc4)n2)OC[C@]3(C)C(N)=O)C(F)(F)F)cc2cn(C(F)F)nc12 [Example 586]	< 200	> 500	–
COc1cc(C(=O)NC[C@](O)(c2cc3c(c(-c4cnc(Cl)c(Cl)c4)n2)OC[C@]3(C)C(N)=O)C(F)(F)F)cc2cn(C3CC3)nc12 [Example 587]	< 200	> 500	–
COc1cc(C(=O)NC[C@](O)(c2cc3c(c(-c4cnc(Cl)c(Cl)c4)n2)OC[C@]3(C)C(N)=O)C(F)(F)F)cc2cc(Cl)c(C)nc12 [Example 588]	< 200	> 500	–
COc1cc(C(=O)NC[C@](O)(c2cc3c(c(-c4cnc(Cl)c(Cl)c4)n2)OC[C@]3(C)C(N)=O)C(F)(F)F)cc2cn(C(F)F)nc12 [Example 589]	< 200	> 500	–
C[C@]1(C(N)=O)COc2c1cc([C@@](O)(CNC(=O)c1cc(O)c3nn(C4CC4)cc3c1)C(F)(F)F)nc2-c1ccc(F)cc1 [Example 590]	< 200	> 500	–
COc1cc(C(=O)NC[C@](O)(c2cc3c(c(-c4ccc5c(c4)OC(F)(F)O5)n2)OC[C@]3(C)C(N)=O)C(F)(F)F)cc2cn(C(F)F)nc12 [Example 591]	< 200	< 500	–
C[C@]1(C(N)=O)COc2c1cc([C@@](O)(CNC(=O)c1ccn3nc(C4CC4)cc3c1)C(F)(F)F)nc2-c1ccc2c(c1)OC(F)(F)O2 [Example 592]	< 200	< 500	–
COc1cc(C(=O)NC[C@](O)(c2cc3c(c(-c4csc5c(F)cccc45)n2)OC[C@]3(C)C(N)=O)C2CC2)cc2cn(C3CC3)nc12 [Example 593]	< 200	< 500	–
COc1cc(C(=O)NC[C@](O)(c2cc3c(c(-c4csc5c(F)cccc45)n2)OC[C@]3(C)C(N)=O)C2CC2)cc2cn(C(F)F)nc12 [Example 594]	< 200	< 500	–
